Results as given in ChEMBL document CHEMBL3862012, “Methylene versus carbonyl bridge in the structure of new tubulin polymerization inhibitors with tricyclic A-rings” (Bioorg Med Chem, 2016).
pIC50: −log10 of the molar value.

Legend:
[1] = Cytotoxicity against human MOLT4 cells assessed as growth inhibition at 10 uM after 48 hrs by SRB assay relative to control; assay type: functional; settings: MOLT-4, 48 h, read-out: GI
[2] = Cytotoxicity against human RPMI8226 cells assessed as growth inhibition at 10 uM after 48 hrs by SRB assay relative to control; assay type: functional; settings: RPMI-8226, 48 h, read-out: GI
[3] = Cytotoxicity against human SR cells assessed as growth inhibition at 10 uM after 48 hrs by SRB assay relative to control; assay type: functional; settings: read-out: GI
[4] = Cytotoxicity against human HOP92 cells assessed as growth inhibition at 10 uM after 48 hrs by SRB assay relative to control; assay type: functional; settings: HOP-92, 48 h, read-out: GI
[5] = Cytotoxicity against human SNB19 cells assessed as growth inhibition at 10 uM after 48 hrs by SRB assay relative to control; assay type: functional; settings: SNB-19, 48 h, read-out: GI
[6] = Cytotoxicity against human MALME-3M cells assessed as growth inhibition at 10 uM after 48 hrs by SRB assay relative to control; assay type: functional; settings: read-out: GI
[7] = Cytotoxicity against human SK-MEL-2 cells assessed as growth inhibition at 10 uM after 48 hrs by SRB assay relative to control; assay type: functional; settings: SK-MEL-2, 48 h, read-out: GI
[8] = Cytotoxicity against human UACC257 cells assessed as growth inhibition at 10 uM after 48 hrs by SRB assay relative to control; assay type: functional; settings: UACC-257, 48 h, read-out: GI
[9] = Cytotoxicity against human IGROV1 cells assessed as growth inhibition at 10 uM after 48 hrs by SRB assay relative to control; assay type: functional; settings: IGROV-1, 48 h, read-out: GI
[10] = Cytotoxicity against human NCI-ADR-RES cells assessed as growth inhibition at 10 uM after 48 hrs by SRB assay relative to control; assay type: functional; settings: read-out: GI
[11] = Cytotoxicity against human SKOV3 cells assessed as growth inhibition at 10 uM after 48 hrs by SRB assay relative to control; assay type: functional; settings: SK-OV-3, 48 h, read-out: GI
[12] = Cytotoxicity against human Caki1 cells assessed as growth inhibition at 10 uM after 48 hrs by SRB assay relative to control; assay type: functional; settings: CAKI-1, 48 h, read-out: GI
[13] = Cytotoxicity against human PC3 cells assessed as growth inhibition at 10 uM after 48 hrs by SRB assay relative to control; assay type: functional; settings: PC-3, 48 h, read-out: GI
[14] = Cytotoxicity against human DU145 cells assessed as growth inhibition at 10 uM after 48 hrs by SRB assay relative to control; assay type: functional; settings: DU-145, 48 h, read-out: GI
[15] = Cytotoxicity against human MDA-MB-468 cells assessed as growth inhibition at 10 uM after 48 hrs by SRB assay relative to control; assay type: functional; settings: MDA-MB-468, 48 h, read-out: GI
[16] = Inhibition of sheep brain tubulin polymerization by DAPI staining-based fluorimetric method; parameters: species or system Ovis aries
[17] = Cytotoxicity against human NCI-H226 cells assessed as growth inhibition at 10 uM after 48 hrs by SRB assay relative to control; assay type: functional; settings: NCI-H226, 48 h, read-out: GI
[18] = Cytotoxicity against human CCRF-CEM cells assessed as growth inhibition after 48 hrs by SRB assay; assay type: functional
[19] = Cytotoxicity against human HL-60(TB) cells assessed as growth inhibition after 48 hrs by SRB assay; assay type: functional; settings: HL-60, 48 h
[20] = Cytotoxicity against human K562 cells assessed as growth inhibition after 48 hrs by SRB assay; assay type: functional; settings: K562, 48 h
[21] = Cytotoxicity against human SR cells assessed as growth inhibition after 48 hrs by SRB assay; assay type: functional
[22] = Cytotoxicity against human NCI-H460 cells assessed as growth inhibition after 48 hrs by SRB assay; assay type: functional; settings: NCI-H460, 48 h
[23] = Cytotoxicity against human NCI-H522 cells assessed as growth inhibition after 48 hrs by SRB assay; assay type: functional; settings: NCI-H522, 48 h
[24] = Cytotoxicity against human HCC2998 cells assessed as growth inhibition after 48 hrs by SRB assay; assay type: functional; settings: HCC 2998, 48 h
[25] = Cytotoxicity against human HT-29 cells assessed as growth inhibition after 48 hrs by SRB assay; assay type: functional; settings: HT-29, 48 h
[26] = Cytotoxicity against human SW620 cells assessed as growth inhibition after 48 hrs by SRB assay; assay type: functional; settings: SW-620, 48 h
[27] = Cytotoxicity against human SF268 cells assessed as growth inhibition after 48 hrs by SRB assay; assay type: functional; settings: SF-268, 48 h
[28] = Cytotoxicity against human SF295 cells assessed as growth inhibition after 48 hrs by SRB assay; assay type: functional; settings: SF-295, 48 h
[29] = Cytotoxicity against human SNB75 cells assessed as growth inhibition after 48 hrs by SRB assay; assay type: functional; settings: SNB-75, 48 h
[30] = Cytotoxicity against human SK-MEL-2 cells assessed as growth inhibition after 48 hrs by SRB assay; assay type: functional; settings: SK-MEL-2, 48 h
[31] = Cytotoxicity against human SK-MEL-28 cells assessed as growth inhibition after 48 hrs by SRB assay; assay type: functional; settings: SK-MEL-28, 48 h
[32] = Cytotoxicity against human UACC62 cells assessed as growth inhibition after 48 hrs by SRB assay; assay type: functional; settings: UACC-62, 48 h
[33] = Cytotoxicity against human LOXIMVI cells assessed as growth inhibition after 48 hrs by SRB assay; assay type: functional; settings: LOX IMVI
[34] = Cytotoxicity against human SK-MEL-5 cells assessed as growth inhibition after 48 hrs by SRB assay; assay type: functional; settings: SK-MEL-5, 48 h
[35] = Cytotoxicity against human OVCAR3 cells assessed as growth inhibition after 48 hrs by SRB assay; assay type: functional; settings: OVCAR-3, 48 h
[36] = Cytotoxicity against human OVCAR8 cells assessed as growth inhibition after 48 hrs by SRB assay; assay type: functional; settings: OVCAR-8, 48 h
[37] = Cytotoxicity against human NCI-ADR-RES cells assessed as growth inhibition after 48 hrs by SRB assay; assay type: functional
[38] = Cytotoxicity against human RXF393 cells assessed as growth inhibition after 48 hrs by SRB assay; assay type: functional; settings: RXF 393, 48 h
[39] = Cytotoxicity against human UO31 cells assessed as growth inhibition after 48 hrs by SRB assay; assay type: functional; settings: UO-31, 48 h
[40] = Cytotoxicity against human ACHN cells assessed as growth inhibition after 48 hrs by SRB assay; assay type: functional
[41] = Cytotoxicity against human PC3 cells assessed as growth inhibition after 48 hrs by SRB assay; assay type: functional; settings: PC-3, 48 h

## COc1ccc(CN2c3ccccc3Oc3ccccc32)cc1F
[1]
  inhibition of growth at 10 µM: 58%
[2]
  inhibition of growth at 10 µM: 39%
[3]
  inhibition of growth at 10 µM: 73%
[4]
  inhibition of growth at 10 µM: 33%
[5]
  inhibition of growth at 10 µM: 32%
[6]
  inhibition of growth at 10 µM: 41%
[7]
  inhibition of growth at 10 µM: 90%
[8]
  inhibition of growth at 10 µM: 41%
[9]
  inhibition of growth at 10 µM: 48%
[10]
  inhibition of growth at 10 µM: 59%
[11]
  inhibition of growth at 10 µM: 53%
[12]
  inhibition of growth at 10 µM: 41%
[13]
  inhibition of growth at 10 µM: 35%
[14]
  inhibition of growth at 10 µM: 4%
[15]
  inhibition of growth at 10 µM: 56%

## COc1ccc(CN2c3ccccc3Sc3ccccc32)cc1O
[16]
  pIC50: 5.04
[1]
  inhibition of growth at 10 µM: 82%
[2]
  inhibition of growth at 10 µM: 76%
[3]
  inhibition of growth at 10 µM: 84%
[4]
  inhibition of growth at 10 µM: 50%
[17]
  inhibition of growth at 10 µM: 29%
[5]
  inhibition of growth at 10 µM: 67%
[6]
  inhibition of growth at 10 µM: 28%
[7]
  inhibition of growth at 10 µM: 91%
[8]
  inhibition of growth at 10 µM: 48%
[9]
  inhibition of growth at 10 µM: 70%
[10]
  inhibition of growth at 10 µM: 82%
[11]
  inhibition of growth at 10 µM: 71%
[12]
  inhibition of growth at 10 µM: 64%
[13]
  inhibition of growth at 10 µM: 74%
[14]
  inhibition of growth at 10 µM: 82%
[15]
  inhibition of growth at 10 µM: 91%
[18]
  GI50: 411 nM
[19]
  GI50: 257 nM
[20]
  GI50: 365 nM
[21]
  GI50: 407 nM
[22]
  GI50: 444 nM
[23]
  GI50: 241 nM
[24]
  GI50: 422 nM
[25]
  GI50: 724 nM
[26]
  GI50: 504 nM
[27]
  GI50: 966 nM
[28]
  GI50: 225 nM
[29]
  GI50: 180 nM
[30]
  GI50: 333 nM
[31]
  GI50: 14400 nM
[32]
  GI50: 682 nM
[33]
  GI50: 710 nM
[34]
  GI50: 438 nM
[35]
  GI50: 304 nM
[36]
  GI50: 508 nM
[37]
  GI50: 291 nM
[38]
  GI50: 338 nM
[39]
  GI50: 752 nM
[40]
  GI50: 1560 nM
[41]
  GI50: 503 nM

## COc1ccc(CN2c3ccccc3Oc3ccccc32)cc1O
[1]
  inhibition of growth at 10 µM: 75%
[2]
  inhibition of growth at 10 µM: 86%
[3]
  inhibition of growth at 10 µM: 83%
[4]
  inhibition of growth at 10 µM: 67%
[17]
  inhibition of growth at 10 µM: 6%
[5]
  inhibition of growth at 10 µM: 65%
[6]
  inhibition of growth at 10 µM: 55%
[7]
  inhibition of growth at 10 µM: 100%
[8]
  inhibition of growth at 10 µM: 61%
[9]
  inhibition of growth at 10 µM: 55%
[10]
  inhibition of growth at 10 µM: 75%
[11]
  inhibition of growth at 10 µM: 69%
[12]
  inhibition of growth at 10 µM: 61%
[13]
  inhibition of growth at 10 µM: 69%
[14]
  inhibition of growth at 10 µM: 63%
[15]
  inhibition of growth at 10 µM: 93%
